Measurements published in patent publication US20160349242A1, “PLATFORM TECHNOLOGIES FOR SPONTANEOUSLY OCCURRING DISEASES” (Oatmeal Biotechnologies Group, LLC, priority 2009, published 2016).
Where two headings read alike, the source gives them in different places. Square brackets hold non-standard residues; d marks the D form. Peptide text beside a SMILES is read from it. d(aIle) = CC[C@H](C)[C@@H](N)C(=O)O; Nva = CCC[C@H](N)C(=O)O; Sar = CNCC(=O)O

Key:
Canine TCC = settings: dog, in vivo; cited from earlier work
canine osteosarcoma = settings: non-metastatic dogs, cisplatin followed by L-MTP-PE or placebo; cited from earlier work
MSC = settings: in vivo; cited from earlier work
[1] = tested on: circulating neutrophil counts; settings: immunosuppressive doses; cited from earlier work
canine MGT = settings: dog, in vivo; cited from earlier work
[2] = tested on: soft tissue sarcoma (STS) or malignant histiocytosis (MH); settings: dog, in vivo
Procedure: Depletion of MSC is accomplished by i.v. administration of LC, which is prepared as described for treatment of dogs with malignant histiocytosis (34). The LC is administered once every 2 weeks by slow i.v. infusion over 60 minutes, at a dose of 0.5 ml/kg.

soft tissue sarcoma [3] = settings: cited from earlier work
soft tissue sarcoma [4] = settings: intralesional, biphasic electric pulses; cited from earlier work
[5] = tested on: canine soft tissue sarcoma; settings: bleomycin and electric pulses; cited from earlier work
cultured cells = settings: cited from earlier work
high-grade osteosarcoma = settings: added to doxorubicin, cisplatin and high-dose methotrexate; cited from earlier work
tumor growth = settings: mouse, in vivo; cited from earlier work
[6] = tested on: spontaneous canine tumors; settings: dog, in vivo; cited from earlier work
first-relapse NHL = settings: with lomustine vs lomustine and placebo; cited from earlier work
NHL = settings: cited from earlier work

In the case of `CN1C(C(=O)Nc2ccccn2)=C(O)c2ccccc2S1(=O)=O` [piroxicam], the objective response rate (Canine TCC) is given as 18%.
For `N.N.[Cl][Pt][Cl]` [cisplatin], the median survival time (canine osteosarcoma) is listed as 9.8 months.
In the case of `CC1=C(/C=C/C(C)=C/C=C/C(C)=C/C(=O)O)C(C)(C)CCC1` [ATRA, all-trans retinoic acid], the spontaneous anti-tumor immunity (MSC) is listed as “improved” and the vaccine responses (MSC) is listed as “significantly enhanced”.
In the case of `C[C@]12C=CC(=O)C=C1CC[C@@H]1[C@@H]2C(=O)C[C@@]2(C)[C@H]1CC[C@]2(O)C(=O)CO` [prednisone], the “time to rebound in circulating neutrophil counts” value [1] is listed as 48 to 72 h.
In the case of `CC/C(=C(\c1ccccc1)c1ccc(OCCN(C)C)cc1)c1ccccc1` [tamoxifen], the anti-tumor activity (canine MGT) is given as “does not have demonstrable anti-tumor activity”.
For `COc1cccc2c1C(=O)c1c(O)c3c(c(O)c1C2=O)C[C@@](O)(C(=O)CO)C[C@@H]3O[C@H]1C[C@H](N)[C@H](O)[C@H](C)O1` [doxorubicin], the anti-tumor activity (canine MGT) is given as “a few partial responses”.
With liposomal clodronate [LC] the tolerability [2] was “well-tolerated”.
For bleomycin, the “average time of recurrence” value (soft tissue sarcoma [3]; intraoperative bleomycin with electrotherapy) is listed as 12 months, the “average time of recurrence” value (soft tissue sarcoma [3]; postoperative bleomycin with electrotherapy) is listed as 19 months and the long term remissions (soft tissue sarcoma [4]) is listed as 40%. The overall response rate (soft tissue sarcoma [4]) was 80%, the “median time to recurrence” value [5] was 730 days and the response rate [5] was 95%. For the same compound, the internalized fraction (cultured cells) was less than 0.1%.
For `O=P1(NCCCl)OCCCN1CCCl` (stereo not drawn) [ifosfamide], the “drug free survival (DFS)” value (high-grade osteosarcoma) is given as “did not significantly improve” and the “overall survival (OS)” value (high-grade osteosarcoma) is given as “did not significantly improve”.
In the case of `CCC[C@H](NC(=O)[C@@H](NC(=O)[C@H](NC(=O)[C@@H](NC(=O)CNC(=O)CN(C)C(C)=O)C(C)C)[C@@H](C)CC)[C@@H](C)O)C(=O)N[C@H](C(=O)N[C@@H](CCCNC(=N)N)C(=O)N1CCC[C@H]1C(=O)NCC)[C@@H](C)CC` [ABT-526] (Ac-[Sar]GV[d(aIle)]T[Nva]IRP-NHEt), the tumor growth (tumor growth) is given as “slow tumor growth”, the relative activity [6] is given as “more active than ABT-510” and the duration of response (first-relapse NHL) is given as “modestly enhanced”. The “number of cases responding to chemotherapy” value (first-relapse NHL) was “did not increase”.
In the case of `Cc1ncc(CO)c(CO)c1O` [pyridoxine], the “relative risk of developing PPES, placebo group versus pyridoxine” value (NHL; daily Doxil with oral pyridoxine or placebo) is given as 4.2 times, the PPES symptoms (NHL; dog, in vivo) is given as “delayed and lessened the symptoms” and the “remission rates between treatment groups” value (NHL; dog, in vivo) is given as “No difference”.
